From patent US9873883B2, “Glyphosate resistant plants and associated methods” (Dow AgroSciences LLC, priority 2012, dated 2018)
pIC50: −log10 of the molar value.

How the values were obtained:
[1] = biological target: bacterial EPSP synthase DGT-11 v6, native (GENBANK YP_989551.1), SEQ ID NO:5 (Bartonella bacilliformis, UniProt A0ABN0IFN8); assay: In vitro kinetic assay (inorganic phosphate production, malachite green)
Method: (§1) The synthesized genes were cloned into the pET28 expression vector.
(§2) Recombinant DGT proteins were overexpressed in Rosetta2™ (DE3) cells (Novagen, Madison, Wis.) from the constructs described above. A single colony was used to inoculate 50 mL starter cultures of LB containing chloramphenicol (25 μg/mL) and kanamycin (50 μg/mL) which were cultivated overnight at 37° C. The overnight cultures were used to inoculate 1 L of LB containing chloramphenicol (25 μg/mL) and kanamycin (50 μg/mL). The cultures were grown at 37° C. to an O.D.600=0.6 then placed in an ice water bath for 10 minutes. Expression of the target proteins was achieved by addition of IPTG to a final concentration of 500 μM. Induction was allowed to proceed overnight at 20° C. followed by harvesting via centrifugation at 8,000 rpm for 20 minutes. The cell pellets were stored at −80° C. until required for purification. All purification steps were carried out at 4° C.

[2] = biological target: Mariprofundus ferrooxydans EPSP synthase DGT-14 variant DGT-14 v6 (G101A), SEQ ID NO:1 (Mariprofundus ferrooxydans, UniProt Q0EYT4, G101A); assay: as above; assay type: biochemical; settings: IC50 (glyphosate), values greater than 50 are estimates
[3] = test system: untransformed B104 maize line; assay: Growth inhibition dosage response in maize callus culture; assay type: cell-based, Zea mays
[4] = biological target: bacterial EPSP synthase DGT-29 (GENBANK YP_322772.1) variant DGT-29 v6 (G→A at residue 96), SEQ ID NO:11 (Trichormus variabilis, UniProt Q3MAV9, G96A); assay: In vitro kinetic assay (inorganic phosphate production, malachite green); settings: IC50 (glyphosate), values greater than 50 are estimates
Source text: (§3) The novel DGT-14, DGT-12, DGT-18, DGT-29 and DGT-30 enzymes were obtained and the glycine to alanine mutation was introduced into the EPSP synthase enzymes at a location analogous to the G96A location described for the E. coli version of the EPSP synthase enzyme. The DGT-14 protein sequence was modified by introducing an alanine to replace the endogenous glycine of GENBANK ACC NO: ZP_01452683 at amino acid residue 101, thereby resulting in SEQ ID NO:1. The DGT-12 protein sequence was modified by introducing an alanine to replace the endogenous glycine of GENBANK ACC NO: ZP_01622155.1 at amino acid residue 111, thereby resulting in SEQ ID NO:7. The DGT-18 protein sequence was modified by introducing an alanine to replace the endogenous glycine of GENBANK ACC NO: NP_928909.1 at amino acid residue 96, thereby resulting in SEQ ID NO:9. The DGT-29 protein sequence was modified by introducing an alanine to replace the endogenous glycine of GENBANK ACC NO: YP_322772.1 at amino acid residue 96, thereby resulting in SEQ ID NO:11. The DGT-30 protein sequence was modified by introducing an alanine to replace the endogenous glycine of GENBANK ACC NO: ZP_02156189.1 at amino acid residue 96, thereby resulting in SEQ ID NO:13.
as §1, §2

[5] = biological target: bacterial EPSP synthase DGT-30 (GENBANK ZP_02156189.1) variant DGT-30 v6 (G→A at residue 96), SEQ ID NO:13 (Shewanella benthica, UniProt A9CYU9, G96A); assay: as above; settings: IC50 (glyphosate)
Source text: as §3, §1, §2

[6] = biological target: bacterial EPSP synthase DGT-18 (GENBANK NP_928909.1) variant DGT-18 v6 (G→A at residue 96), SEQ ID NO:9 (Photorhabdus laumondii, UniProt Q7N6D5, G96A); assay: as above; settings: IC50 (glyphosate)
Source text: as §3, §1, §2

[7] = test system: Arabidopsis transformed with TraP13 v2::dgt-14 (pDAB105529); assay: Postemergence glyphosate tolerance, visual injury; assay type: in vivo, Arabidopsis thaliana; settings: 2 weeks after application
[8] = test system: T0 dgt-14 corn plants; assay: Postemergence herbicide tolerance in dgt-14 transformed T0 corn; assay type: in vivo, Zea mays; settings: Durango DMA
Method: T0 events are allowed to acclimate in the greenhouse and are grown until two to four new, normal looking leaves emerge from the whorl (i.e., plants that transition from tissue culture to greenhouse growing conditions). Plants are grown at 27° C. under 16 hour light:8 hour dark conditions in the greenhouse. The plants are then treated with commercial formulations of Durango DMA™ (containing the herbicide glyphosate) with the addition of 2% w/v ammonium-sulfate. Herbicide applications are made with a track sprayer at a spray volume of 187 L/ha, 50-cm spray height. T0 plants are sprayed with a range of glyphosate from 280-4480 g ae/ha glyphosate, which is capable of significant injury to untransformed corn lines. A lethal dose is defined as the rate that causes >95% injury to the B104 inbred.

[9] = test system: Arabidopsis transformed with TraP5 v2::dgt-14 (pDAB105525); assay: Postemergence glyphosate tolerance, visual injury; assay type: in vivo, Arabidopsis thaliana; settings: 2 weeks after application

O=C(O)CNCP(=O)(O)O [glyphosate, N-(phosphonomethyl)glycine]
pIC50 [1]: 2.00 | pIC50 ([2]; at 60 μM PEP): < 1.10 | pIC50 ([2]; at 1 mM PEP): < 1.10 | glyphosate concentrations sufficient to inhibit cell growth [3]: ≥ 0.25 mM | pIC50 ([4]; *determined at 100 μM PEP): < 1.10 | pIC50 ([4]; at 1 mM PEP): < 1.10 | pIC50 ([5]; at 60 μM PEP): 2.10 | pIC50 ([5]; at 1 mM PEP): 1.81 | pIC50 ([6]; at 60 μM PEP): 2.03 | pIC50 ([6]; at 1 mM PEP): 1.48 | Visual % injury (Ave) ([7]; T2, 840 g ae/ha): 1.3% | Visual % injury (Ave) ([7]; T3, 840 g ae/ha): 0.0% | tolerance to glyphosate achieved at rates up to [8]: up to 4480 g ae/ha | Visual % injury (Ave) ([9]; T2, 840 g ae/ha): 90.0% | Visual % injury (Ave) ([9]; T3, 840 g ae/ha): 97.5%
